# In patent publication US12098407B2, “Methods for decoupling yield and productivity of a non-catabolic compound produced by a host cell” (AMYRIS, INC., priority 2019, dated 2024):
# Like-named read-outs stand apart in the source and are kept apart here.
# Assays:
# biomass yield = assay: Concentration of weak organic acid required to reduce the biomass yield to 50% of the reference condition; assay type: cell-based; details: concentration required to reduce the biomass yield to 50% of the reference condition
# [1] = tested on: farnesene-producing strain; assay: Farnesene-producing strain treated with different concentrations of benzoic acid; assay type: cell-based; details: FIG. 8
# Experimental: Benzoic acid can be used to deplete ATP in the cell by forcing the cells to use ATP to pump out excess protons that are moved into the cytoplasm by the benzoyl […]. […] The yield (qP/qS) was calculated from measured specific sugar uptake rate and specific farnesene production rate.
# Single colonies were grown on CSM agar plates, then picked into sterile 96-well microtiter plates (1.1 mL working volume Axygen) containing 360 ul of defined liquid growth medium (LGM; as referenced in Example 1, Westfall et al, 2012) with 50 mM succinate (pH 5.0) and 2% sucrose+1% maltose+2 g/L lysine grown for 72 h at 28 C. […] Taking measurements of farnesene, biomass, and total residual sugar during log phase growth (at two times, T1 and T2) allows for the determination of specific productivity, growth rate, and specific sugar uptake rate. Farnesene is measured using full-well extraction with isopropanol, and quantified by UV absorbance at 220 nm with reference to a standard curve. Biomass was measured by assaying the fluorescent signal of intracellular tryptophan with an excitation wavelength of 290 nm and detection at 350 nm (UVOD). The relationship between this tryptophan signal and actual biomass is strain-dependent, and is determined empirically for each strain assayed. We do this by measuring both UVOD and biomass absorbance (OD) just prior to the start of production plates; this gives a per-well OD/UVOD conversion factor that is then used to convert UVOD signal at the end of production runs back to biomass. Another conversion we must make in determining biomass is from optical density (OD) to dry cell weight; this is also determined empirically. […] Growth rates were determined by applying a linear regression to LN (OD) vs time. Total reducing sugars was measured by using an enzymatic determination of sucrose, fructose and glucose with an output of NADH absorption read at 340 nm, as described in various commercial kits, as such those sold by Sigma Aldrich.
# HMGR from P. mevalonii = molecular target: T1, HMGR from P. mevalonii (Pseudomonas mevalonii, UniProt P13702); details: class II HMGR, source P. mevalonii; read-out: Km^NADH; cited from earlier work
# T1 sequence (P13702 1-428): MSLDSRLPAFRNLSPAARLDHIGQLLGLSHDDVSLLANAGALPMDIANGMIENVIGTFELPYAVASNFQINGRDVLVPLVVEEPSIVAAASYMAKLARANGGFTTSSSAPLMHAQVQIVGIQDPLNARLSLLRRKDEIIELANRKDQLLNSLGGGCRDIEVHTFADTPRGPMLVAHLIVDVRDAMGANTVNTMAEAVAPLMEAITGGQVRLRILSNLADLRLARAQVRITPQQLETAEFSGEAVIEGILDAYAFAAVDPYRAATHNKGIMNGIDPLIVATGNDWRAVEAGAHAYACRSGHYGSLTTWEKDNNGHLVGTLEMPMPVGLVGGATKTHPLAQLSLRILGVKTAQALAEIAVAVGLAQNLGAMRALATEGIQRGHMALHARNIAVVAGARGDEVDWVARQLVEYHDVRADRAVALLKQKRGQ
# HMGR from A. fulgidus = molecular target: T2, HMGR from A. fulgidus (Archaeoglobus fulgidus, UniProt O28538); details: class II HMGR, source A. fulgidus, cited from earlier work
# T2 sequence (O28538 1-436): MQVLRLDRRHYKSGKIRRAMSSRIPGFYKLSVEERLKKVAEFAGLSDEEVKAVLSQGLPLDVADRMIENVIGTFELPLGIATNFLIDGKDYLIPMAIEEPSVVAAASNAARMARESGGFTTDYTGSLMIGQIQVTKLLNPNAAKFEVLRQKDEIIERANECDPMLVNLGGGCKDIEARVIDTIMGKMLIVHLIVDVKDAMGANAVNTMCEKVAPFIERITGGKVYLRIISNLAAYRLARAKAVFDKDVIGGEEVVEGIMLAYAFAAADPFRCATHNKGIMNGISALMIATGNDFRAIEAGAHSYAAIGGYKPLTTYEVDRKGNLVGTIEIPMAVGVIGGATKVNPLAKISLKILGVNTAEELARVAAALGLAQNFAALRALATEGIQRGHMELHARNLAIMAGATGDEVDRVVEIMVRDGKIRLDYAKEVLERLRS
# HMGR from S. aureus = details: class II HMGR, source S. aureus, cited from earlier work
# HMGR from E. faecalis = HMGR from E. faecalis (Enterococcus faecalis, UniProt Q9FD70); details: class II HMGR, source E. faecalis; read-out: Km^NADPH; cited from earlier work
# [2] = increasing concentrations of benzoic acid
structure (smiles),measurement,setting,value
CC(=O)O [Acetic Acid],YCR50,biomass yield,105.0 mM
O=C(O)c1ccccc1 [Benzoic Acid],YCR50,biomass yield,2.0 mM
same,calculated yield (qP/qS),[1]; increased benzoic acid concentrations,increased
same,specific farnesene productivity (qP),[1]; [2],did not change and even increased a little at intermediate concentrations
same,specific growth rate (mu),[1]; [2],decreased linearly
NC(=O)C1=CN([C@@H]2O[C@H](COP(=O)(O)OP(=O)(O)OC[C@H]3O[C@@H](n4cnc5c(N)ncnc54)[C@H](O)[C@@H]3O)[C@@H](O)[C@H]2O)C=CC1 [NADH],Km,HMGR from P. mevalonii,80 µM
same,Km,HMGR from A. fulgidus; read-out: Km^NADH,160 µM
same,Km,HMGR from S. aureus; read-out: Km^NADH,100 µM
NC(=O)C1=CN([C@@H]2O[C@H](COP(=O)(O)OP(=O)(O)OC[C@H]3O[C@@H](n4cnc5c(N)ncnc54)[C@H](OP(=O)(O)O)[C@@H]3O)[C@@H](O)[C@H]2O)C=CC1 [NADPH],Km,HMGR from A. fulgidus; read-out: Km^NADPH,500 µM
same,Km,HMGR from S. aureus; read-out: Km^NADPH,70 µM
same,Km,HMGR from E. faecalis,30 µM
CCC(=O)O [Propionic Acid],YCR50,biomass yield,20.0 mM
C/C=C/C=C/C(=O)O [Sorbic Acid],YCR50,biomass yield,1.3 mM
